Measured values from US7018836B1, “P-TEFb compositions, methods and screening assays” (priority 1996, dated 2006).

What was measured:
RNA polymerase II [1] = assay: Kinase assay of recombinant P-TEFb subunits with RNA polymerase II as substrate (Table 1); type: biochemical, Drosophila
Protocol: 0.4 μl of purified RNA polymerase II and various protein samples were mixed in 18 μl of 55 mM HMK. The reaction was then initiated by the addition of 2 μl of a solution containing 2 μCi of [γ-^32P]ATP (ICN) and unlabeled ATP at 10 μM, or only unlabeled ATP at concentrations from 1 to 100 μM or other NTPs or dNTPs at concentrations of 1 to 100 μM. Reactions were incubated for the indicated times at 23° C. and then terminated with SDS loading buffer. Samples were analyzed on a 6–15% SDS polyacrylamide gel which was silver stained, dried and subjected to autoradiography if the assay contained label.
Using the CTD Kinase assay, as previously described in Example 2, Section A.7, both HBL1-1 (SEQ ID NO:45), HBL2(SEQ ID NO:47) and HBL3 (SEQ ID NO:50) were substituted for the large subunit in the Drosophila transcription system. Alone “PITARLE” has little kinase activity and no detectable activity in transcription.

[2] = test system: transcription in Drosophila extract depleted of P-TEFb; assay: Transcription activity of recombinant protein added into Drosophila extract depleted of P-TEFb (Table 1); type: biochemical
RNA polymerase II [3] = biological target: T1, RNA polymerase II (Drosophila melanogaster, UniProt P04052); assay: Immobilized template add-back assay, elongation by isolated early elongation complexes; type: biochemical; conditions: added prior to the chase
T1 construct: endogenous in cells; host or cells: Drosophila Kc cell nuclear extract; washed early elongation complexes on immobilized actin A2 template
T1 sequence (P04052 whole entry): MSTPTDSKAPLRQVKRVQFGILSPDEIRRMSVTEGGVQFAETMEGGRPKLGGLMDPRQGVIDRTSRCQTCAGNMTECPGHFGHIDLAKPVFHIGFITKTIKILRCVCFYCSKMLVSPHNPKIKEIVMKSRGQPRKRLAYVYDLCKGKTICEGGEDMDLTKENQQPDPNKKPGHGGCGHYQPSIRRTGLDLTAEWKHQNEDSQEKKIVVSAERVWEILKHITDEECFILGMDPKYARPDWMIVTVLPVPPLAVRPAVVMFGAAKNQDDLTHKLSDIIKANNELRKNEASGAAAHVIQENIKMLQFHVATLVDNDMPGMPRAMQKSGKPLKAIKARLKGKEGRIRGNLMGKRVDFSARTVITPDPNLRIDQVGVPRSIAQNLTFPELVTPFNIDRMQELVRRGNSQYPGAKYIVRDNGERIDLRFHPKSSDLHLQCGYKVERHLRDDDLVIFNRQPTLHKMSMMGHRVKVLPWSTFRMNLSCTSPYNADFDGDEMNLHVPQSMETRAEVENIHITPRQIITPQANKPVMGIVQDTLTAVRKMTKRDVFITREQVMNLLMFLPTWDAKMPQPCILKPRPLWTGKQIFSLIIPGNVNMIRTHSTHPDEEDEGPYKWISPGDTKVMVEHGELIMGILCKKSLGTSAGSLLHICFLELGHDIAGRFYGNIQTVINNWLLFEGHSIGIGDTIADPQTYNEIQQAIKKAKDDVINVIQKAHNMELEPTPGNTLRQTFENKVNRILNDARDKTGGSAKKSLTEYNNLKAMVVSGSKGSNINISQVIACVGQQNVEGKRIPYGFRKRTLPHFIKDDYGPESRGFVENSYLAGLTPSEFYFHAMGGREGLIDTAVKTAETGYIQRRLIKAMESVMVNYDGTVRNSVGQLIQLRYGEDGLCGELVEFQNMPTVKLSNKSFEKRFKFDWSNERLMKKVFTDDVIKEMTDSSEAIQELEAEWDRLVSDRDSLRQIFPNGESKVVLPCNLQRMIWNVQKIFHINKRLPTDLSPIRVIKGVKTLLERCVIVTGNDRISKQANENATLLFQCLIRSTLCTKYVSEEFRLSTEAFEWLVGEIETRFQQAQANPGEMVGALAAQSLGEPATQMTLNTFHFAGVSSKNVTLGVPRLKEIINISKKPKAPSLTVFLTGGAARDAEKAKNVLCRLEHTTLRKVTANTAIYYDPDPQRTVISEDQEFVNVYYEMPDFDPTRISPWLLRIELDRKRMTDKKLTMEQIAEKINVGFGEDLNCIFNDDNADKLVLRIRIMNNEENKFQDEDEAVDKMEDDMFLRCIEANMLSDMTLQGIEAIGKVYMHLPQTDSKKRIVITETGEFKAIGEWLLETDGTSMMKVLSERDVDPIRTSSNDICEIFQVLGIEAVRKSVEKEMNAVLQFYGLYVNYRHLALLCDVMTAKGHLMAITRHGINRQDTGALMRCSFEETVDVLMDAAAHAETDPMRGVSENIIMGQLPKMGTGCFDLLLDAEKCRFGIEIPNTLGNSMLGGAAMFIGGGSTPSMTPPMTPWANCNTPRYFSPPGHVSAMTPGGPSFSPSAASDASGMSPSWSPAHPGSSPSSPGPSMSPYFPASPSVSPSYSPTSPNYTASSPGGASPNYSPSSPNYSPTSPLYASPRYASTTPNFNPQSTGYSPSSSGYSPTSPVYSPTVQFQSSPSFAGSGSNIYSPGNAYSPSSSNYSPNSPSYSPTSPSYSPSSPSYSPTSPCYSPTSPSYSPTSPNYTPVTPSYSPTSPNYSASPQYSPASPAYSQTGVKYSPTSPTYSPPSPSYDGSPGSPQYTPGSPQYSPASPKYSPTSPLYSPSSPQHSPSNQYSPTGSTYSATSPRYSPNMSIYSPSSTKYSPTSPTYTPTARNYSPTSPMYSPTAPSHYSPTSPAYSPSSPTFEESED
Protocol: Since P-TEF was first identified using an immobilized template assay, the ability of HeLa NE to generate DRB-sensitive elongation complexes when added back to isolated EECs was examined. Drosophila actin A2 DNA template and Kc cell NE was used to form EECs containing Drosophila RNA polymerase II. An immobilized A2 template was preincubated with Kc cell NE and then pulsed for 30 sec with [α-^32P] CTP. The resulting EECs were isolated, and washed. Only short transcripts were produced during the pulse and the labeled […] were removed by the washing protocol. […] However, addition of Kc cell NE to the chase, allowed some EECs to enter productive elongation and make long DRB-sensitive transcripts. When a HeLa NE that was capable of producing high levels of DRB-sensitive transcription was added to the chase, DRB-sensitive transcripts were also produced.

PITALRE: human P-TEFb small (kinase) subunit, SEQ ID NO:6, HIS-tagged, baculovirus expressed
Kinase activity (RNA polymerase II [1]; RNA polymerase II as substrate): very little | stimulation of the activity of PITALRE by the cyclin subunit (RNA polymerase II [1]; phosphorylation of the CTD of RNA polymerase II): approximately 100 fold | Transcription activity [2]: none

α-amanitin
elongation by all EECs (RNA polymerase II [3]): inhibited
